Like-named read-outs stand apart in the source and are kept apart here.
Columns and labels:
[1] = tested on: isolation-induced aggressive behaviour of male mice; assay: Isolation-induced aggressive behaviour; assay type: in vivo, mouse (male NMR mice); conditions: Mus musculus, sc, read-out: ED50, mg/kg, sc (dose inhibiting aggressive behaviour among 50 percent of the pairs)
Description: Male mice subjected to prolonged isolation develop aggressive behavior against each other when paired. […] The clinical correlation of this test indicates tranquillizing and anxiolytic activities as well as antiaggressive properties as such (R. L. Duncan et al., J. Med. Chem. 13, 1 (1970)).
This type of aggression is interesting because it is known that this kind of emotional behaviour might be located in limbic structures in the brain (P. D. Mac Lean, Psychosom. Med. 11, 338 (1949)).
Every week 24 male NMR mice, weighing 20-22 g, were isolated in Makrolon cages for three weeks with diet and water ad libitum. A piece of cardboard was placed between the cages to prevent visual contact.
To test aggressiveness the mice were paired in a neutral area, a beaker (14 cm high and diameter 14 cm). A pair is considered aggressive if both the animals show clear signs of fighting within 5 min. This fighting is characterized by biting and vocalization. As soon as fighting is seen, the mice are separated and brought to their home cage. […] Animals showing no aggression are discarded. […] The test substance is administered s.c. (0.2-0.4 ml/20 g). The mice are paired 1/2 h, 1 h, 2 h, 4 h, 6 h and 24 h after the injection for trials of 5 min. duration.
The ED50 -value (mg/kg) reported is the dose inhibiting aggressive behaviour among 50 percent of the pairs 1.0 hour after drug administration.

[2] = tested on: guinea pig papillary muscle; assay: Prolongation of effective refractory period in guinea pig papillary muscle; conditions: 10^-7 M; pacing frequencies 1, 2 and 4 Hz
thymus = assay: Swim-test (stress-induced thymolymphatic involution); assay type: in vivo, mouse (NMRI female); conditions: for protecting capacity against the induced stress: in words; for Relative weight of thymus, ×100: once 10 min before first swim-test, saline stressed 36, unstressed 66, Wilcoxon's ranking test
Description: If an animal is in a stage of exhaustion the rise in glucocorticoids induced by the stress causes thymolymphatic involution and elicites a characteristic change in blood count. […] In the experiments NMRI female mice were used with well-documented thymic glands. In the experiments the mice were divided in four groups. In the first group the mice were allowed to stay in their home cages all the time. In the second group saline-treated mice were repeatedly forced to swim in water at a temperature of +5° C. for 1 min. once every hour, 6 times per day for four days. In the third group the mice were pre-treated once with the test compound 10 min. before the first swim-test, otherwise the mice were manipulated in the same way as in the second group. In the fourth group the mice were adrenalectomized three days before the start of the swim tests. Otherwise also this group was manipulated as the second group. All mice were killed on the 5th day of the experiment and the weight of the thymic gland registered.

gastric ulcers in rats = assay: Stress-induced ulcers (restraint and cold); assay type: in vivo, rat (female Sprague Dawley); conditions: 15 min before cold and restraint
Description: A number of methods have been described for studies of somatic expression of adverse stimulation in experimental animals. One method is based upon the development of gastric lesions in rat subjected to some form of environmental stress. The most frequently used mode of stressing the rats is by simple physical restraint. In the experiments to be described rats were immobilized in rigid plastic devices. As repeatedly shown the restraint and the exposure to cold, act synergistically to produce gastric ulcers. The method for production of stress ulcus in rats has been described earlier (R. J. Levine In: C. J. Pfeiffer ed., Peptic Ulcer, Scand. Univ. Books, Copenhagen 1971). The animals in the experiments, female Sprague Dawley rats 180-230 g, have been kept immobilized for three hours at +5° C. For 24 hours prior to restraint the animals furthermore were not allowed to ingest anything but tap water. In all experiments the rats were divided in three groups. In the first group all animals were pre-treated only with saline 15 min. before the exposure to the stressors. […] The third group consisted always of the compound to be tested in this model. The number and severity of gastric erosions in the opened stomach of controls and drug-pre-treated animals were scored. The average number of gastric ulcers in the control rats were put equal to a hundred percent. In table VI the potency of some compounds to protect against gastric ulcers in the described experiments is reported. All pre-treatments were always made 15 min. before the exposure to cold and restraint.

Geller conflict test = assay type: in vivo; conditions: s.c., ** (Student's t-test)
Description: The Geller conflict test for anxiolytics clearly meets the requirements for a standard model and is most useful operant paradigm in screening for new drugs. (I. Geller and J. Seifler, Psychopharmacologia l, 482 (1960); B. Blackwell and W. E. Whitehead, In: A. Sudilovsky, S. Gershorn and B. Beer, eds. Predictability in Psychopharmacology: Preclinical and Clinical Correlations. Raven Press New York pp. 121, (1975)).

[3] = tested on: acetic acid induced writhing; assay: Writhing test (analgetic properties); assay type: in vivo, mouse (NMRI female); conditions: Mus musculus, sc, 20 min before acetic acid i.p.; read-out: ED50, mg/kg, s.c. (dose blocking the writhing behaviour in 50% of the animals)
Experimental: The writhing test is a frequently used test of analgetic properties (L. B. Witkin et al., J. Pharmacol. Exp. Ther. 133, 400 (1961)). If acetic acid (0.5%, 15 ml/kg) is injected intraperitoneally in mice (NMRI) they will without exception develop a writhing behaviour characterized by stretching their hind legs. The drugs to be tested were administered subcutaneously to 6 female mice at each dose 20 min. before the injection of the acetic acid. After 10 min. the behaviour of the mice was studied in 5 min. The ED50 value is the dose blocking the writhing behaviour in 50% of the animals during the 5 min. study period. [drawing 13]

[4] = tested on: exploratory activity / climbing of mice; assay: Climbing (inability to ascend net-ladder); assay type: in vivo, mouse (NMRI female); conditions: Mus musculus, sc, read-out: ED50, mg/kg, s.c. (dose rendering 50% of the mice incapable of entering the top of the net-ladder)
Experimental: When mice are placed in a new area, they explore the whole available territory. Minor and major tranquillizers inhibit the exploratory activity. The sedative effect of drugs is evaluated by the inability of mice to ascend a netladder. The process of climbing is very complex and consists of psychical and taxic (motor performance) components. For the experiments a transparent cage (36×27×23 cm) and a net-ladder (35×6 cm) standing with an inclination of 45° was used. (P. Kneip. Arch. Int. Pharmacodyn. 76, 238 (1960); F. Sandberg, Arzneimittelforsch. 4, 203 (1959)).
The test compound is administered s.c. (10 ml/kg) to 6 NMRI female mice per dose. The mice are marked with a number code from 1 to 6, in order to recognize each individual mouse. In 25 minutes, 55 minutes, 1 h 55 minutes and 3 h 55 minutes time after the administration the mice are placed in the above-mentioned cage for 10 minutes. The number of mice ascending the top of the net-ladder is noted. Other behavioural items are also noted. The ED50 (mg/kg) reported is the dose rendering 50% of the mice incapable of entering the top of the net-ladder 0.5 h after the administration.

[5] = tested on: mouse-killing behaviour of rats; assay: Spontaneous mouse-killing (muricide) by rats; assay type: in vivo, rat (male hooded Long-Evans); conditions: Rattus norvegicus, sc
Description: For the purpose of detecting new psychotropic substances with antiaggressive properties, pharmacologist have used several different models. […] This form of aggressive behaviour which is considered to be of predatory nature, is physiologically and topographically different from other forms of aggression (M. O'Boyle, Psychol. Bull. 81, 261 (1974)). Mousekilling is a spontaneous behaviour in some rat strains e.g. male hooded Long-Evans rats. Male hooded Long-Evans rats placed in individual cages were used. By testing a number of rats, a colony of rats was obtained that killed a mouse whenever introduced into the rats' cage, by biting the mouse through the cervical spinal cord. Each rat was tested for mouse-killing behaviour (killing a mouse within 5 minutes) prior to each experiment, thus serving as its own positive control. For each dose level 6 positive rats were selected and the test substance was administered by subcutaneous injection. Doses were selected to form a dose-response curve and the mean effective dose (ED50, mg/kg) was calculated by means of linear regression. The rats were tested at 1, and 2 hours after being injected subcutaneously.

[6] = tested on: guinea pig papillary muscle; conditions: cited from earlier work
central 5HT receptors = conditions: established antidepressant drugs; in words; cited from earlier work
pigs = assay: Social parameters and aggression of pigs in stress situations; assay type: in vivo, pig; conditions: in words; for stabilization of social parameters: aggression, hierarchy, interaction, cleanliness, feeding behaviour; for effect on aggression: stress situations
Description: Among domestic animals pigs are exposed to a wide variety of stresses, e.g. after weaning, at transports and at regrouping of animals. By studying social parameters such as aggression, hierarchy, interaction, cleanliness in their living space and feeding behaviour in different stress situations the new compounds of formula I have been compared with established drugs, e.g. azaperone and acepromazine, now used in handling pigs.

[7] = tested on: isolation-induced aggressive behaviour of male mice; conditions: background on clinically used drugs; in words; cited from earlier work
[8] = 1.0 hour after drug administration
[9] = read-out: ED50, mg/kg, s.c., 2 hrs after injection
[10] = 1 hr after injection, read-out: ED50, mg/kg, s.c., 1 hr

CCNC(=O)N1CCN(CCCC(c2ccc(F)cc2)c2ccc(F)cc2)CC1 [II, N'-Ethyl-4-[4,4-(di-p-fluorophenyl)butyl]-1-piperazinecarboxamide]
ED50 [1, 8]: 1.3 mg/kg | prolongation of the effective refractory period [2]: 30 ms | protecting capacity against the induced stress (thymus): most protecting capacity | Relative weight of thymus, ×100 (thymus; pre-treatment dose 1.0 mg/kg): 50 | Inhibition, % (gastric ulcers) (gastric ulcers in rats; pre-treatment dose 1.0 mg/kg): 43% | Percent shocks compared to controls (Geller conflict test; dose 0.5 mg/kg): 250% | ED50 [3]: 0.7 mg/kg | ED50 ([4]; 0.5 h after administration): 0.7 mg/kg | ED50 [5, 9]: 1.9 mg/kg | ED50 [5, 10]: 0.4 mg/kg

CCN(CC)CC(=O)Nc1c(C)cccc1C [Lidocain]
change of the effective refractory period ([6]; 10^-7 M): 20 ms

CN(C)CCC=C1c2ccccc2CCc2ccccc21 [Amitriptyline, reference compound]
ED50 [1, 8]: 5 mg/kg | blockade of central 5HT receptors (central 5HT receptors): potent blockers | ED50 [5, 9]: 6.4 mg/kg | ED50 [5, 10]: > 10 mg/kg

CC(=O)c1ccc2c(c1)N(CCCN(C)C)c1ccccc1S2 [Acepromazine]
stabilization of social parameters (pigs): did not improve any social parameter | effect on aggression (pigs): blocked aggression by an unspecific mechanism of sedation

CN1CC[C@]23c4c5ccc(O)c4O[C@H]2[C@@H](O)C=C[C@H]3[C@H]1C5 [Morphine]
Inhibition, % (gastric ulcers) (gastric ulcers in rats; pre-treatment dose 2.0 mg/kg): 67%

C=C[C@H]1C[N@@]2CC[C@H]1C[C@@H]2[C@@H](O)c1ccnc2ccc(OC)cc12 [Quinidine]
change of the effective refractory period ([6]; 10^-6 M): 14 ms

O=C(CCCN1CCN(c2ccccn2)CC1)c1ccc(F)cc1 [Azaperone]
protecting capacity against the induced stress (thymus): less effective | Relative weight of thymus, ×100 (thymus; pre-treatment dose 1.0 mg/kg): 48 | Inhibition, % (gastric ulcers) (gastric ulcers in rats; pre-treatment dose 1.0 mg/kg): 0% | stabilization of social parameters (pigs): did not improve any social parameter | effect on aggression (pigs): blocked aggression by an unspecific mechanism of sedation

O=C(CCCN1CCC(O)(c2ccc(Cl)cc2)CC1)c1ccc(F)cc1 [Haloperidol, reference compound]
ED50 ([4]; 0.5 h): 1.3 mg/kg

CNC(=O)N1CCN(CCCC(c2ccc(F)cc2)c2ccc(F)cc2)CC1 [I, N'-Methyl-4-[4,4-(di-p-fluorophenyl)butyl]-1-piperazinecarboxamide]
ED50 [1, 8]: 4.8 mg/kg | ED50 [3]: 0.5 mg/kg | ED50 ([4]; 0.5 h after administration): 1.5 mg/kg | ED50 [5, 9]: 0.7 mg/kg | ED50 [5, 10]: 0.5 mg/kg

CN(C)CCCN1c2ccccc2Sc2ccc(Cl)cc21 [Chlorpromazine, reference compound]
ED50 ([1]; 1 h): 1.4 mg/kg | ED50 ([4]; 0.5 h): 2 mg/kg

CNC(=O)N1C[C@H](C)N(CCCC(c2ccc(F)cc2)c2ccc(F)cc2)C[C@H]1C (relative stereo) [III, trans-2,5-Dimethyl-N'-methyl-4-[4,4-(di-p-fluorophenyl)butyl]-1-piperazinecarboxamide]
ED50 [1, 8]: 2.6 mg/kg | ED50 [3]: 1 mg/kg | ED50 ([4]; 0.5 h after administration): 1 mg/kg | ED50 [5, 9]: 2.9 mg/kg | ED50 [5, 10]: 1.9 mg/kg

CC(C)NCC(O)COc1cccc2ccccc12 (stereo not drawn) [Propranolol]
protecting capacity against the induced stress (thymus): less effective | Relative weight of thymus, ×100 (thymus; pre-treatment dose 10.0 mg/kg): 48

CN1C(=O)CN=C(c2ccccc2)c2cc(Cl)ccc21 [Diazepam, reference compound]
Percent shocks compared to controls (Geller conflict test; dose 1.0 mg/kg): 240% | effect on isolation-induced aggressive behaviour [7]: active

CNC(=S)N1CCN(CCCC(c2ccc(F)cc2)c2ccc(F)cc2)CC1 [IV, N'-Methyl-4-[4,4-(di-p-fluorophenyl)butyl]-1-piperazinecarbothioamide]
ED50 [1, 8]: 2 mg/kg | ED50 [3]: 1.4 mg/kg | ED50 ([4]; 0.5 h after administration): 5.1 mg/kg | ED50 [5, 9]: 0.1 mg/kg | ED50 [5, 10]: 0.1 mg/kg

CN1CCN2c3ccccc3Cc3ccccc3C2C1 (stereo not drawn) [Mianserin]
blockade of central 5HT receptors (central 5HT receptors): potent blockers

CCCCc1oc2ccccc2c1C(=O)c1cc(I)c(OCCN(CC)CC)c(I)c1 [Amiodarone]
change of the effective refractory period ([6]; 10^-5 M): 35 ms
